Results: article PMC11596392, “Enhanced Antibacterial, Anti-Inflammatory, and Antibiofilm Activities of Tryptophan-Substituted Peptides Derived from Cecropin A-Melittin Hybrid Peptide BP100” (Molecules, 2024)
In brackets after ≈: the same amount, converted by molar mass. Where no end group is shown, it is not given here.

What was measured:
MDRPA (CCARM 2095) = format: cell-based, multidrug-resistant Pseudomonas aeruginosa; conditions: for MICA: MIC of peptide alone: checkerboard, 37 °C, 24 h; for FICI: fractional inhibitory concentration index: peptide with ciprofloxacin, [A]/MICA + [B]/MICB
Description: Multidrug-resistant pathogens pose a significant challenge to both human and animal health. The steady decline in the discovery of new antibiotics has exacerbated the difficulty in developing effective therapies for infection control. Consequently, there is an urgent need for alternative strategies that can combat pathogens without inducing drug resistance. One such strategy involves the combination of different antimicrobial agents. The effects of antimicrobial peptides (AMPs) combined with conventional antibiotics often surpass those of individual drugs. […] The primary advantage of synergistic combinations lies in their ability to lower the concentration of each antimicrobial agent required for effective antibacterial activity. This approach offers several benefits, including reduced production costs, a decreased risk of adverse side effects, diminished toxicity to mammalian cells, and a lower likelihood of drug resistance development. In light of these potential advantages, we investigated the synergistic effects of BP100 and the five selected analogs in combination with ciprofloxacin against multidrug-resistant Pseudomonas aeruginosa (MDRPA) using a checkerboard synergy assay. Ciprofloxacin, an antibiotic belonging to the fluoroquinolone class, is commonly used to treat various bacterial infections, including urinary tract infections and pneumonia. It exerts a bactericidal effect by inhibiting bacterial DNA gyrase, thereby disrupting DNA replication and transcription […]. The fractional inhibitory concentration index (FICI) results for BP100 and its selected analogs, when paired with ciprofloxacin against MDRPA, are detailed in Table 5. […] Such combinations may offer a valuable approach to enhancing the efficacy of existing antibiotics and potentially mitigating the development of antimicrobial resistance.
The synergistic effects of peptide-antibiotic combinations against methicillin-resistant Staphylococcus aureus (MRSA; CCARM 3089) and multidrug-resistant Pseudomonas aeruginosa (MDRPA; CCARM 2095) were evaluated using the fractional inhibitory concentration index (FICI) method. Antibiotics and peptides were subjected to two-fold serial dilutions, mixed in equal ratios, and combined with a bacterial suspension adjusted to approximately 10^6 CFU/mL. The resulting mixtures were distributed into microplate wells and incubated at 37 °C with orbital shaking at 200 rpm for 24 h. Bacterial growth was monitored by measuring the optical density at 600 nm (OD600). The FICI was calculated using the broth microdilution checkerboard method, defined as the sum of the ratios of the minimum inhibitory concentrations (MICs) of each agent in combination to their individual MICs, according to the following equation: FICI = (MIC of antibiotic in combination/MIC of antibiotic alone) + (MIC of peptide in combination/MIC of peptide alone). The interpretation of FICI values was as follows: FICI ≤ 0.5 indicates synergy; 0.5 < FICI ≤ 1.0 indicates an additive effect; 1.0 < FICI ≤ 4.0 indicates indifference; and FICI > 4.0 indicates antagonism.

S. aureus (KCTC 1621) = format: cell-based, Staphylococcus aureus; conditions: 10% Human Serum

Molecule | MICA: MIC of peptide alone (MDRPA (CCARM 2095)) [µg/mL] | FICI: fractional inhibitory concentration index (MDRPA (CCARM 2095)) | MIC (S. aureus (KCTC 1621)) [µM]
CC[C@H](C)[C@H](NC(=O)[C@H](CCCCN)NC(=O)[C@H](CCCCN)NC(=O)[C@H](Cc1ccccc1)NC(=O)[C@H](CC(C)C)NC(=O)[C@H](CCCCN)NC(=O)[C@@H](N)CCCCN)C(=O)N[C@@H](CC(C)C)C(=O)N[C@@H](CCCCN)C(=O)N[C@@H](Cc1ccc(O)cc1)C(=O)N[C@@H](CC(C)C)C(N)=O [BP100] | 32 | 0.375 | 32 (≈ 45.5 µg/mL)
KKLFKKIWKWL-NH2 [BP11] | 8 | 0.3125 | 8
KKLWKKILKWL-NH2 [BP8] | 8 |  | 4
KKWFKKILKWL-NH2 [BP6] | 8 | 0.375 | 4
KKWFKKWLKWL-NH2 [BP13] | 8 | 0.2656 | 8
KKWWKKILKYL-NH2 [BP5] | 8 | 0.3125 | 4
